Measurements published in ChEMBL document CHEMBL1138277, “Synthesis and in vivo activity of MK2 and MK2 substrate-selective p38alpha(MAPK) inhibitors in Werner syndrome cells” (Bioorg Med Chem Lett, 2007).
Activity calls are given as the source filed them. No cut-off for these calls is given here.

Columns and labels:
[1] = test system: WS; assay: Growth inhibition of WS cells above 200 nM; assay type: functional, cell-based; details: Homo sapiens
[2] = target: T1, MAP kinase-activated protein kinase 2 (Homo sapiens, UniProt P49137); assay: Inhibition of MK2 in human TERT immortalised HCA2 cells assessed as inhibition of anisomycin-induced HSP27 phosphorylation at 2.5 uM by ELISA; assay type: cell-based
[3] = species on record: Homo sapiens; assay: Inhibition of JNK
[4] = target: T1, MAP kinase-activated protein kinase 2; assay: Inhibition of MK2 mediated HSP27 phosphorylation in immortalised WS cells assessed as reduction in F-actin stress fibres; assay type: cell-based
Target sequence in this assay (P49137 whole entry, looked up): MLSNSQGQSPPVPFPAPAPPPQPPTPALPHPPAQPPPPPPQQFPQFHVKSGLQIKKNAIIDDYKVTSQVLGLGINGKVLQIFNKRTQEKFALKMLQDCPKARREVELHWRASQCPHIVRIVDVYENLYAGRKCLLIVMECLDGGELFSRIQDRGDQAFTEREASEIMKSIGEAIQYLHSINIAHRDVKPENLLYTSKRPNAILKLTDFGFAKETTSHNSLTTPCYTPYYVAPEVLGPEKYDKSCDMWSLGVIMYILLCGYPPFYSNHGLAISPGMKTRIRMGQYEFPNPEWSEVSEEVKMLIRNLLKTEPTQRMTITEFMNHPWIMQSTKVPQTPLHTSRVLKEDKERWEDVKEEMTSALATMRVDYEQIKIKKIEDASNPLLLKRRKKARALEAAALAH

[5] = target: MAP kinase p38 (Homo sapiens) (UniProt O15264+Q15759+Q16539+P53778); assay: Inhibition of p38 mediated MK2 activation in HCA2 cells at 25 uM; assay type: cell-based
[6] = test system: HCA2; assay: Growth inhibition of HCA2 cells above 2.5 uM; assay type: functional, cell-based; details: Homo sapiens
[7] = target: T1, MAP kinase-activated protein kinase 2; assay: Inhibition of MK2 in human TERT immortalised HCA2 cells assessed as maximal inhibition of anisomycin-induced HSP27 phosphorylation at 25 uM by ELISA; assay type: cell-based
Target sequence in this assay (P49137 whole entry, looked up): as above

[8] = test system: WS; assay: Growth inhibition of WS cells above 2.5 uM; assay type: functional, cell-based; details: Homo sapiens
[9] = target: T1, MAP kinase-activated protein kinase 2; assay: Inhibition of MK2 in human TERT immortalised HCA2 cells assessed as inhibition of anisomycin-induced HSP27 phosphorylation by ELISA; assay type: cell-based
Target sequence in this assay (P49137 whole entry): as the sequence (P49137 whole entry, looked up) above

[10] = target: T1, MAP kinase-activated protein kinase 2; assay: Inhibition of MK2 mediated HSP27 phosphorylation in immortalised WS cells assessed as reduction in F-actin stress fibres at 25 uM after 6 days; assay type: cell-based
Target sequence in this assay (P49137 whole entry, looked up): as above

`O=C(CCCc1ccc(-c2ccccc2F)cc1)Nc1ccc(O)cc1` was tested, and the Activity [1] was “Active”, the Ki app [2] was 0.33 µM and the Activity [3] was “inactive”.

In the case of `C[S+]([O-])c1ccc(-c2nc(-c3ccc(F)cc3)c(-c3ccncc3)[nH]2)cc1` (stereo not drawn), the Activity [4] is reported as “Active”.

For `N#Cc1c(N)nc2c(c1N)Cc1cc(O)c(O)cc1O2`, the Activity [5] was “inactive”, the Activity [6] was “Active” and the Activity [2] was “Active”. The Activity [7] was “Active”, the Activity [8] was “Active” and the IC50 [9] was 2.5 µM. The Activity [3] was “inactive”, the Activity [4] was “Active” and the Activity [10] was “Active”.
